Source: patent US20260152395A1, “SUSTAINED-RELEASE CHLORINE DIOXIDE GAS […] AND METHOD” (ABC MEDICAL CO., LTD., priority 2022, published 2026)

assay: Chlorine dioxide generation test 1: organic substance added to sodium chlorite solution, reactivity observed; type: physicochemical; set-up: key: high reaction rate (+++++) resulted in the initiation of chlorine dioxide gas generation relatively quickly within several hours to several days after the addition; intermediate reaction rate (+++) resulted in the initiation of chlorine dioxide gas generation within several days to several tens of days after the addition; The reaction initiation time of the organic substances with a slow reaction rate (+) is hard to specify; settings: organic substance added to 23% aqueous sodium chlorite; room temperature and refrigerated temperature
Experimental: To investigate the reactivity with and the risk of sodium chlorite depending on the type of organic substance, each of organic substances in Table 1 was added to a 23% aqueous solution of sodium chlorite to observe the reactivity at room temperature and refrigerated temperature.

Row | SMILES | Reaction rate
1 | [Ca+2].[OH-].[OH-] [Calcium hydroxide] | No reaction
2 | [O]=[Ca] [Calcium oxide] | No reaction
3 | CCO [Ethanol] | +++++
4 | O=C(CO)[C@@H](O)[C@H](O)[C@H](O)CO [Fructose] | +++
5 | OCC(O)CO [Glycerol] | +++++
6 | OO [Hydrogen peroxide] | No reaction
7 | [K+].[OH-] [Potassium hydroxide] | No reaction
8 | [Cl-].[Na+] [Salt] | No reaction
9 | O=C([O-])[O-].[Na+].[Na+] [Sodium carbonate] | +
10 | N[C@@H](CCC(=O)[O-])C(=O)[O-].[Na+].[Na+] [Sodium glutamate] | +++++
11 | [Na+].[OH-] [Sodium hydroxide] | No reaction
12 | O=C1NS(=O)(=O)c2ccccc21.[Na] [Sodium saccharin] | +++
13 | OC[C@@H](O)[C@@H](O)[C@H](O)[C@@H](O)CO [Sorbitol] | +++
14 | OC[C@H]1O[C@@](CO)(O[C@H]2O[C@H](CO)[C@@H](O)[C@H](O)[C@H]2O)[C@@H](O)[C@@H]1O [Sucrose] | +++
15 | OC[C@H]1O[C@H](O[C@H]2O[C@H](CO)[C@@H](O)[C@H](O)[C@H]2O)[C@H](O)[C@@H](O)[C@@H]1O [Trehalose] | +++
